Results on 14 compounds are retold here after ChEMBL document CHEMBL3046073, “Synthesis and cytotoxicity of novel 6H-indolo[2,3-b]quinoxaline derivatives” (2013).

What all share (assay type): functional
Assay [1] relates to DU-145. The assay can be described thus: Cytotoxicity against Homo sapiens (human) DU145 cells assessed as cell viability at 10 uM after 72 hr by MTT assay. The following applies: DU-145, 72 h, read-out: Activity. Background: Tetrazolium assays rely on reduction of a dye to a coloured formazan, in cell work by metabolically active cells.
Assay [2] relates to A549. The assay can be described thus: Cytotoxicity against Homo sapiens (human) A549 cells assessed as cell viability at 10 uM after 72 hr by MTT assay. To be noted: A549, 72 h, read-out: Activity.
Assay [3] deals with HeLa. As to the kind of experiment: Cytotoxicity against Homo sapiens (human) HeLa cells assessed as cell viability at 10 uM after 72 hr by MTT assay. The following applies: read-out: Activity.

In the case of `Fc1ccc(-n2cc(Cn3c4ccccc4c4nc5ccccc5nc43)nn2)cc1`, the viability at 10 µM came to 83.2% in assay [1], 94.7% in assay [2] and 77.4% in assay [3].
Turning to `Fc1ccc2c(c1)c1nc3ccccc3nc1n2Cc1cn(-c2cccc(C(F)(F)F)c2)nn1`, the viability at 10 µM in assay [1] is 77.5%; in assay [2] it was 93.7%; in assay [3], 86.4%.
The corresponding values for `Clc1cccc(-n2cc(Cn3c4ccccc4c4nc5ccccc5nc43)nn2)c1` are 77.5%, 104% and 77.5%.
The corresponding values for `FC(F)(F)c1cccc(-n2cc(Cn3c4ccccc4c4nc5ccccc5nc43)nn2)c1` are 76.5%, 83.4% and 76.9%.
Turning to `Fc1ccc(-n2cc(Cn3c4ccc(F)cc4c4nc5ccccc5nc43)nn2)c(F)c1`, the viability at 10 µM in assay [1] is 77.3%; in assay [2] it was 87.9%; in assay [3], 86.8%.
On to `Fc1ccc(COc2cccc(-n3cc(Cn4c5ccccc5c5nc6ccccc6nc54)nn3)c2)cc1`, for which the viability at 10 µM worked out at 77.6% in assay [1], 98.3% in assay [2] and 81.5% in assay [3].
For `COc1cccc2c1C(=O)c1c(O)c3c(c(O)c1C2=O)C[C@@](O)(C(=O)CO)C[C@@H]3O[C@H]1C[C@H](N)[C@H](O)[C@H](C)O1` [DOXORUBICIN], in that order: 9%, 6.33% and 12%.
As to `Fc1ccc(-n2cc(Cn3c4ccc(F)cc4c4nc5ccccc5nc43)nn2)cc1`, the viability at 10 µM came out at 85% in assay [1], 97.1% in assay [2] and 91.9% in assay [3].
For `Brc1ccccc1-n1cc(Cn2c3ccccc3c3nc4ccccc4nc32)nn1`, in that order: 85.4%, 85.5% and 75.6%.
The corresponding values for `Fc1ccc2c(c1)c1nc3ccccc3nc1n2Cc1cn(-c2ccccc2)nn1` are 72.6%, 97.8% and 92%.
The corresponding values for `Fc1ccc2c(c1)c1nc3ccccc3nc1n2Cc1cn(-c2ccccc2Br)nn1` are 90.1%, 94.7% and 89.4%.
With `Fc1ccc(-n2cc(Cn3c4ccccc4c4nc5ccccc5nc43)nn2)c(F)c1`, the viability at 10 µM stood at 77.4% in assay [1], 94.7% in assay [2] and 80.7% in assay [3].
For the compound `Fc1cc(-n2cc(Cn3c4ccccc4c4nc5ccccc5nc43)nn2)ccc1Cl`, the values for the viability at 10 µM in assay [1], in assay [2] and in assay [3] were 76.1%, 83.5% and 93.6%, respectively.
For `Fc1ccc2c(c1)c1nc3ccccc3nc1n2Cc1cn(-c2cccc(Cl)c2)nn1`, in that order: 73.2%, 91.9% and 77.7%.
